According to publication PMC11661376, “A2B adenosine receptor-triggered intracellular calcium mobilization: Cell type-dependent involvement of Gi, Gq, Gs proteins and protein kinase C” (Research Square, 2024):

Molecular target: T1, P2Y1 receptor (P2Y1R) (Homo sapiens, UniProt P47900)
T1 construct: gene P2RY1; native receptor in T24 and HEK293 cells
Assay: agonist-induced intracellular Ca2+ mobilization (FLIPR) in T24 cells
Format: cell-based

T1 sequence (P47900 whole entry): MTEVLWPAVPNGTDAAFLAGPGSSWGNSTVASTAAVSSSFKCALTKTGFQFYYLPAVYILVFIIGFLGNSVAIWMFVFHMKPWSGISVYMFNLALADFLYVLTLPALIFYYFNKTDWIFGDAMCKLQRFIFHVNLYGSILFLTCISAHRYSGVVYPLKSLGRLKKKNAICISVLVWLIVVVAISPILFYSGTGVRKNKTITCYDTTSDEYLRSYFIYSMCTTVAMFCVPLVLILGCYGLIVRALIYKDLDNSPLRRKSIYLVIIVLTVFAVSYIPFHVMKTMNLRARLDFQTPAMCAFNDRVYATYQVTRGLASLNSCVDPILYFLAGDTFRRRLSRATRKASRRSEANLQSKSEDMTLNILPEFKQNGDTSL

`CSc1nc(N)c2ncn([C@H]3[C@H](O)[C@H](O)[C@]4(COP(=O)(O)OP(=O)(O)O)C[C@H]34)c2n1` [MRS2365] gave an EC50 of 1.38 ± 0.26 nM.
